The source of these data is patent publication US8338426B2, “Piperazinyl derivatives useful as modulators of the neuropeptide Y2 receptor” (Janssen Pharmaceutica NV, priority 2007, dated 2012).

One assay has as its target MTP (Homo sapiens, UniProt P55157). Briefly: MTP assay (triglyceride transfer between vesicles). The format is biochemical. The conditions noted are these: read-out: MTP pIC50 (converted). On the procedure:
MTP activity was measured using an assay similar to one described by J. R. Wetterau and D. B. Zilversmit in Chemistry and Physics of Lipids (1985) 38, 205-222.
In order to prepare the donor and acceptor vesicles, the appropriate lipids in chloroform were put into a glass test tube and dried under a stream of nitrogen. A buffer containing 15 mM Tris-HCl (pH 7.5), 1 mM ethylenediamine tetra-acetic acid, 40 mM NaCl, 0.02% NaN3 (assay buffer) was added to the dried lipid. The mixture was vortexed briefly and the lipids were then allowed to hydrate for 20 minutes on ice. Vesicles were then prepared by bath sonication (using a Branson 2200 device) at room temperature for at most 15 minutes. Butylated hydroxytoluene was included in all vesicle preparations at a concentration of 0.1%. The lipid transfer assay mixture contained donor vesicles (40 nmole phosphatidylcholine, 7.5 mole % cardiolipin and 0.25 mole % glycerol tri[1-^14C]-oleate), acceptor vesicles (240 nmol phosphatidylcholine) and 5 mg bovine serum albumin in a total volume of 675 μl in a 1.5 ml microcentrifuge tube. Test compound was added dissolved in dimethylsulfoxide (0.13% final concentration). After 5 minutes of pre-incubation at 37° C., the reaction was started by the addition of MTP in 100 μl of a dialysis buffer. The reaction was stopped by the addition of 400 μl […] (DEAE)-52 cellulose (Sephadex) pre-equilibrated in 15 mM Tris-HCl (pH 7.5), 1 mM ethylenediamine tetra-acetic acid and 0.02% NaN3 (1:1 volume/volume). The mixture was agitated for 4 minutes and centrifuged for 2 minutes at maximum speed in an Eppendorf centrifuge (4° C.) to pellet the DEAE-52-bound donor vesicles. An aliquot of the supernatant containing the acceptor liposomes was counted and the [^14C]-counts were used to calculate the percent triglyceride transfer from donor to acceptor vesicles.
Representative compounds of the present invention were measured for binding against the MTP receptor, as described above, with results as listed in Table 2 below.

The next assay deals with T1, mouse Y2 receptor (Mus musculus, UniProt P97295).
T1 construct: membranes from rat or mouse hippocampus were prepared; from tissue; host or cells: mouse hippocampus membranes
T1 sequence (P97295 1-381): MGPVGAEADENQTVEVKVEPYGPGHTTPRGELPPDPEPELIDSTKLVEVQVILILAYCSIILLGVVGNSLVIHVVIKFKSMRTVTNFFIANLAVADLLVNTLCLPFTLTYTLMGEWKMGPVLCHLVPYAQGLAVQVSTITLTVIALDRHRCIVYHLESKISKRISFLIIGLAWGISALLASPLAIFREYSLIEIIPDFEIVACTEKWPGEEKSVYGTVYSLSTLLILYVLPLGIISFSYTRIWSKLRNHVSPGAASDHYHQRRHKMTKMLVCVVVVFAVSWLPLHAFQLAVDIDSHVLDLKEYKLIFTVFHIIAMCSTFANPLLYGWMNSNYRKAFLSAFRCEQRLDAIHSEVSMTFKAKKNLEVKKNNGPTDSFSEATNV
Briefly: Neuropeptide Y2 radioligand binding assay, [125I]PYY, mouse hippocampus membranes. To be noted: read-out: mY2 pKi (converted). On the procedure:
(§1) Radioligand binding assays for the human and rat/mouse Y2 receptor were performed as described in Bonaventure, P., D. Nepomuceno, C. Mazur, B. Lord, D. A. Rudolph, J. A. Jablonowski, N. I. Carruthers and T. W. Lovenberg, J Pharmacol Exp Ther. 2004, 308, 1130.
(§2) KAN-Ts endogenously expressing Y2 receptors were used, for the rat and mouse Y2 receptor, membranes from rat or mouse hippocampus were prepared. Membranes were incubated with [^125I]PYY (80 pM) in the presence or absence of test compound for 1 h at rt. The reaction was stopped by filtration through GF/C filter plates pre-soaked in 0.3% polyethylenimine and subsequently washed with Tris-HCl, 50 mM, 5 mM EDTA buffer. Plates were dried for 1 h in a 55° C. oven, scintillation fluid was added and the radioactivity was counted in a Packard TopCount. Specific binding to the NPY receptor subtypes was determined by radioactivity that was bound in the presence of 1 μM NPY.
(§3) Apparent Ki values were calculated as K=IC50/(1+C/KD), where C is concentration of the radioligand and pKi=−log Ki. Data presented below are expressed as mean±S.E.M.

The next assay concerns the target T2, Y5 receptor subtype (Homo sapiens, UniProt Q15761).
T2 construct: expressed in transfected cells; host or cells: HEK-293 cells
T2 sequence (Q15761 1-445): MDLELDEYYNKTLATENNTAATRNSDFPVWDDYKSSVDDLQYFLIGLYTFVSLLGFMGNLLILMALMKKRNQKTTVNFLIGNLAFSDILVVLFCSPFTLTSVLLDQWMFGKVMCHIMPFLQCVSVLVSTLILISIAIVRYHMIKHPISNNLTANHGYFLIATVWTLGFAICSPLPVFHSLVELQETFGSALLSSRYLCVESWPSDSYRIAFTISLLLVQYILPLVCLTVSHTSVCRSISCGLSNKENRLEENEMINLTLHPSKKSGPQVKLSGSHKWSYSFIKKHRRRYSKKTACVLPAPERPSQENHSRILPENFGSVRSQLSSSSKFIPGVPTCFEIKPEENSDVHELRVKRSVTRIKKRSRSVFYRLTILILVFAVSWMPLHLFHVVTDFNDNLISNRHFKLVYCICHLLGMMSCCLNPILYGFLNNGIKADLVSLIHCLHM
Briefly: [125I]PYY binding in HEK-293 cells expressing the Y5 receptor subtype. To be noted: concentrations up to 10; HEK-293 cells expressing Y5. On the procedure:
The selectivity of the compound of formula (A) was further evaluated in a large variety of ion-channels, transporters and receptor-binding assays including the Y1 receptor subtype. These assays were performed by CEREP (Celles L'Evescault, France; www.cere.com<http//www.cerea.com>). Selectivity vs the Y5 receptor subtype was evaluated as described in Bonaventure, P., D. Nepomuceno, C. Mazur, B. Lord, D. A. Rudolph, J. A. Jablonowski, N. I. Carruthers and T. W. Lovenberg, J Pharmacol Exp Ther. 2004, 308, 1130.

Another assay deals with T3, rat Y2 receptor (Rattus norvegicus, UniProt Q9ERC0).
T3 construct: membranes from rat or mouse hippocampus were prepared; from tissue; host or cells: rat hippocampus membranes
T3 sequence (Q9ERC0 1-381): T1 sequence (P97295 1-381) with V4L, P20L, P23S, H25P, I52V, R163Q, I175V, R247K, M266T, P371L
Nature of the assay: Neuropeptide Y2 radioligand binding assay, [125I]PYY, rat hippocampus membranes. The conditions noted are these: read-out: rY2 pKi (converted). On the procedure:
as §1, §2, §3

Positions count from the first letter of the chain named.

Sequence of MTP (P55157 19-894, species assumed): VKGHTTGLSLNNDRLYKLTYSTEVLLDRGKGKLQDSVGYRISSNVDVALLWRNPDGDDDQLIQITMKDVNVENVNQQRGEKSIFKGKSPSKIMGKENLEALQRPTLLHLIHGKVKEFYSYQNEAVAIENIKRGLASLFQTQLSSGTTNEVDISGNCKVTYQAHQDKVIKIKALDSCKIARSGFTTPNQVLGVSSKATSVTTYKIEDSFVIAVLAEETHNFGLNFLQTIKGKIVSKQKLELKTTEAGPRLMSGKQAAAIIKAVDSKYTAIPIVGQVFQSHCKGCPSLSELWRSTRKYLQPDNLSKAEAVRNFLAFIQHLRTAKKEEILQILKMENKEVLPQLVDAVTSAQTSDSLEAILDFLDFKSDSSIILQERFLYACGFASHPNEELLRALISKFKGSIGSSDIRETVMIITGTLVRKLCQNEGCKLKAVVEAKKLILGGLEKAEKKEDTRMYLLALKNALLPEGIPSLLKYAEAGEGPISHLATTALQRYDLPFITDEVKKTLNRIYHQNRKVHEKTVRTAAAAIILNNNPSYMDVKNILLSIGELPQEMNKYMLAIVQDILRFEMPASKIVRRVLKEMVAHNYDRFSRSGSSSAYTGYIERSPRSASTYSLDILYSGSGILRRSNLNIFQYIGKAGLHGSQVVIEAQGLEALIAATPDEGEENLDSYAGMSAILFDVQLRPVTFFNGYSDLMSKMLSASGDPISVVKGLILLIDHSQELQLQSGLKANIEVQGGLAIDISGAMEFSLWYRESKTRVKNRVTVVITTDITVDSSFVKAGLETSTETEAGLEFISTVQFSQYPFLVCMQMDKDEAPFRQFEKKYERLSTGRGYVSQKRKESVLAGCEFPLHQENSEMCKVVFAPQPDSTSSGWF
Sequence of MTP (P07237 18-508 partner, species assumed): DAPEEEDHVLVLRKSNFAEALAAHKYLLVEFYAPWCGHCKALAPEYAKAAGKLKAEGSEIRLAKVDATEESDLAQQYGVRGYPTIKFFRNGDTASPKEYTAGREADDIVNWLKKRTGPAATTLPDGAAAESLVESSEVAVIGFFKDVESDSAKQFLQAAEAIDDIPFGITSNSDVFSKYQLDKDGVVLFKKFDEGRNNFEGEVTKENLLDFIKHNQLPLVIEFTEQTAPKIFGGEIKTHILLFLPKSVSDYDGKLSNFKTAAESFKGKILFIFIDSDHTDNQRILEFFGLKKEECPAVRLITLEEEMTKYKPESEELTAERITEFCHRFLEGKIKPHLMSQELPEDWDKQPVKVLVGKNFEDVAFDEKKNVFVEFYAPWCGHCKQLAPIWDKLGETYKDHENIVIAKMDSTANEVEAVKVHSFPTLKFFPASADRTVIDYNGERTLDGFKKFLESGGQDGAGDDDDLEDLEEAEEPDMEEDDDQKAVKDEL

For the molecule `CCN(CC)C(=O)C(c1ccccc1)N1CCN(c2ccc(NC(=O)c3ccccc3-c3cccnc3)cc2F)CC1` (racemic) [Cmpd (A), N-{4-[4-(Diethylcarbamoyl-phenyl-methyl)-piperazin-1-yl]-3-fluoro-phenyl}-2-pyridin-3-yl-benzamide], the IC50 at MTP is 794 nM. In addition, the values for the Ki on mouse Y2 receptor and at rat Y2 receptor were 4.47 nM and 4.57 nM, respectively. Also, the “competition for specific [125I]PYY receptor binding sites, Y5” value on Y5 receptor subtype is reported as “failed to compete for significant amounts”.
